{
  "source": "PubChem BioAssay AID588681",
  "about": "(The Scripps Research Institute Molecular Screening Center, 2011)",
  "note": "The source made the active and inactive calls.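 Rule for the calls: active = half-maximal IDE activation concentration EC50 of 10 µM or lower; inactive = EC50 above 10 µM.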",
  "data": [
    {"molecular_target": "Insulin-degrading enzyme (Homo sapiens) (UniProt P14735)", "sequence (P14735 whole entry, looked up)": "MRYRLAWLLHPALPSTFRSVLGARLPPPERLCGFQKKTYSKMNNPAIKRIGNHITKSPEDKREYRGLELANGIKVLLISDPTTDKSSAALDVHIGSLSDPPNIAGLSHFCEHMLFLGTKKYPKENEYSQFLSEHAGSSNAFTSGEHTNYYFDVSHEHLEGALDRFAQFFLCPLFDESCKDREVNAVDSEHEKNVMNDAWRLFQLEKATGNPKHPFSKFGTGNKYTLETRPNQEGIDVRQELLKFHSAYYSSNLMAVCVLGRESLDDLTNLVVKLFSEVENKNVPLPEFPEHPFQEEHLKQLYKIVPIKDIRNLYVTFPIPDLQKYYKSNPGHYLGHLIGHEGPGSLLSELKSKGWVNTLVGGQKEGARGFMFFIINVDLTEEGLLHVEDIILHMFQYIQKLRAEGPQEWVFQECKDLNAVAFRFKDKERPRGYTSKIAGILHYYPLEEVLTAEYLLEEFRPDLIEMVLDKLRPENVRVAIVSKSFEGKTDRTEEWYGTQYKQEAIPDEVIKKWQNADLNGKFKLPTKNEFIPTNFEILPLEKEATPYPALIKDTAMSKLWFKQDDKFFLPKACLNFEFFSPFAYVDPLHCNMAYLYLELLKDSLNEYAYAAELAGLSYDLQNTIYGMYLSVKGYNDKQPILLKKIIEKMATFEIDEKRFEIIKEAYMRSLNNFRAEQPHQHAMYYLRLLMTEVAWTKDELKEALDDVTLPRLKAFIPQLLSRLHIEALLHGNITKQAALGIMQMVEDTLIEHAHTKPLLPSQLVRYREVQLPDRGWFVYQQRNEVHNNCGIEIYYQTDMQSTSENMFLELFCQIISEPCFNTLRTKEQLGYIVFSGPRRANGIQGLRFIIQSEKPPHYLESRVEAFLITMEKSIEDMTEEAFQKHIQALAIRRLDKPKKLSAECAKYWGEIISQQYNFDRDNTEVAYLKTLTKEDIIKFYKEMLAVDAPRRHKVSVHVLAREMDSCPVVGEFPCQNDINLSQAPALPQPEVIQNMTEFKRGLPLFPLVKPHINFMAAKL", "assay": "activators of recombinant IDE enzyme, dose response, counter-screen for IDE activator project, biochemical, fluorescence polarization (AID 588681)", "details": "FAbetaB cleavage", "values": [
      {"smiles": "C#CCOCCOCCOCCNc1nc(N2CCN(C(=O)CCCCCCCCCCNC(=O)[C@@H](CCSC)n3cc(CCO)nn3)CC2)nc(N2CCN(C(=O)CCCCCCCCCCNC(=O)[C@H](CO)n3cc(CCCCCN)nn3)CC2)n1", "EC50": "inactive"},
      {"smiles": "C#CCOCCOCCOCCNc1nc(N2CCN(C(=O)CCCCCCCCCCNC(=O)[C@H]([C@@H](C)CC)n3cc(CCCCCN)nn3)CC2)nc(N2CCN(C(=O)CCCCCCCCCCNC(=O)[C@H]([C@@H](C)CC)n3cc(CCCCN=C(N)N)nn3)CC2)n1", "EC50": "2.32 µM"},
      {"smiles": "C#CCOCCOCCOCCNc1nc(N2CCN(C(=O)CCCCCCCCCCNC(=O)Cn3cc(CCCCCN)nn3)CC2)nc(N2CCN(C(=O)CCCCCCCCCCNC(=O)[C@H](CO)n3cc(CCCSC)nn3)CC2)n1", "EC50": "inactive"},
      {"smiles": "C#CCOCCOCCOCCNc1nc(N2CCN(C(=O)CCCCCCCCCCNC(=O)Cn3cc(C[C@@H](C)O)nn3)CC2)nc(N2CCN(C(=O)CCCCCCCCCCNC(=O)[C@H](CCCN=C(N)N)n3cc(C[C@@H](C)CC)nn3)CC2)n1", "EC50": "6.55 µM"},
      {"smiles": "C#CCOCCOCCOCCNc1nc(N2CCN(C(=O)CCCCCCCCCCNC(=O)Cn3cc(CCCCCN)nn3)CC2)nc(N2CCN(C(=O)CCCCCCCCCCNC(=O)Cn3cc(C[C@@H](C)O)nn3)CC2)n1", "EC50": "> 54.7 µM (inactive)"},
      {"smiles": "C#CCOCCOCCOCCNc1nc(N2CCN(C(=O)CCCCCCCCCCNC(=O)[C@H](CO)n3cc(CCCSC)nn3)CC2)nc(N2CCN(C(=O)CCCCCCCCCCNC(=O)[C@H](CCCCN)n3cc(CCO)nn3)CC2)n1", "EC50": "> 54.7 µM (inactive)"},
      {"smiles": "C#CCOCCOCCOCCNc1nc(N2CCN(C(=O)CCCCCCCCCCNC(=O)[C@H](CCCCN)n3cc(CCO)nn3)CC2)nc(N2CCN(C(=O)CCCCCCCCCCNC(=O)[C@H](CCCN=C(N)N)n3cc(C[C@@H](C)CC)nn3)CC2)n1", "EC50": "7.08 µM"},
      {"smiles": "C#CCOCCOCCOCCNc1nc(N2CCN(C(=O)CCCCCCCCCCNC(=O)Cn3cc(CCCCCN)nn3)CC2)nc(N2CCN(C(=O)CCCCCCCCCCNC(=O)[C@H]([C@@H](C)CC)n3cc(CCCCCN)nn3)CC2)n1", "EC50": "8.55 µM"}
    ]}
  ]
}
